molecular target: T1, Acetylcholinesterase (Bos taurus, UniProt P23795); experiment: Inhibition of bovine erythrocytes AChE using acetylthiocholine iodide as substrate incubated for 15 to 20 mins by Ellman's methods; design: species or system Erythrocyte; conditions: not given
T1 sequence (P23795 whole entry): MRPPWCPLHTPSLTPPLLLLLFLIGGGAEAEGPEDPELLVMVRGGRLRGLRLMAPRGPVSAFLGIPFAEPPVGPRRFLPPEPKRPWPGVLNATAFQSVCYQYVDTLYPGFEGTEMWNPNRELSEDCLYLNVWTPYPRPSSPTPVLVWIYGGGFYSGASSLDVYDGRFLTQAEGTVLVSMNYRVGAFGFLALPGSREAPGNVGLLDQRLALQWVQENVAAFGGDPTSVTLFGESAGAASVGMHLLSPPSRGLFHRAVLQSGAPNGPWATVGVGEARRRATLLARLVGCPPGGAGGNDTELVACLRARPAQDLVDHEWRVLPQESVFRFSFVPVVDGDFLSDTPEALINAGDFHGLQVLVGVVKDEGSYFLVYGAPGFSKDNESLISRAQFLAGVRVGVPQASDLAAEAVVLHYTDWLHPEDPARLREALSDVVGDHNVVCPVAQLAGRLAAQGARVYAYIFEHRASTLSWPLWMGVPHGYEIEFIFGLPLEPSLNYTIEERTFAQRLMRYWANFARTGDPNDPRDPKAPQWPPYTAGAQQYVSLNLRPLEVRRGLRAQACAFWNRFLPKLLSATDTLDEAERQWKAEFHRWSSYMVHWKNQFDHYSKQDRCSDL

Compound | IC50 [nM]
C/C=C1\[C@H]2C=C(C(=O)OC)C[C@]1(N)c1ccc(=O)[nH]c1C2 | 4200
C/C=C1\[C@H]2C=C(CO)C[C@]1(N)c1ccc(=O)[nH]c1C2 | 2100
C/C=C1\[C@H]2C=C(C)C[C@]1(N)c1ccc(=O)[nH]c1C2 [HUPERZINE A] | 100

molecular target: T2, Acetylcholinesterase (Bos taurus) (UniProt P23795); experiment: Inhibition of bovine erythrocytes AChE using acetylthiocholine iodide as substrate at 100 uM incubated for 15 to 20 mins by Ellman's methods relative to control; type: tissue-based; conditions: Erythrocyte, time min 15-20
T2 sequence (whole entry): T1 sequence (P23795 whole entry)

Compound | inhibition [%]
C[C@H]1C[C@@]23NCCC[C@@H]2[C@H](Cc2ncccc23)[C@@H]1O | < 50
C[C@@H]1C[C@H]2C[C@@H]3O[C@]24[C@H](O)CCN2CCC[C@@H]3[C@]24C1 | < 50
C[C@H]1C[C@]23C4=CCCN2CCC[C@H]3[C@@H](O)C[C@@H]4[C@@H]1O | < 50
C[C@H]1CC2=[N+]([O-])CCC[C@]23c2cccnc2C[C@@H]3[C@@H]1O | < 50
C[C@@H]1C[C@H]2Cc3[nH]c(=O)ccc3[C@]3(C1)NCC[C@@H](O)[C@H]23 | < 50
C[C@H]1C[C@@]23NCCC[C@@H]2[C@](O)(Cc2ncccc23)[C@H]1O | < 50
CO[C@@]12C[C@@H]3C[C@@H](C)C[C@@]4(O1)N1CCC[C@@]2(O)[C@]34CCC1 | < 50
C[C@@H]1C[C@@]2(O)C[C@@H]3O[C@H]4CC[N+]5([O-])CCC[C@@H]3[C@@]5(C1)[C@]42O (stereo partly specified) | < 50
C[C@@H]1C[C@H]2C[C@H](OC(=O)CCc3ccc(O)cc3)[C@@H]3CCCN4CC[C@H]5O[C@]25[C@]34C1 | < 50
C[C@@H]1C[C@H]2Cc3[nH]c(=O)ccc3[C@@](N)(C1)/C2=C/CO | < 50
C[C@@H]1C[C@@]2(O)C[C@H](OC(=O)CCc3ccc(O)cc3)[C@@H]3CCCN4CC[C@H]5O[C@@]52[C@]34C1 | < 50
C[C@H]1C=C2N3CCC[C@@H]4C(=O)C[C@H]([C@@H]1O)[C@]24CCC3 | < 50
C[C@H]1C[C@@]23[C@H]4CCCN2CC[C@H]2O[C@]23[C@H](C[C@@H]4OC(=O)CCc2ccc(O)cc2)[C@@H]1O | < 50
C[C@H]1C[C@]23C4=CCCN2CCC[C@@H]3[C@H](O)[C@@H](O)[C@@H]4[C@@H]1O | < 50
C/C=C1\[C@@H]2Cc3[nH]c(=O)ccc3[C@@]1(N)C[C@H](CO)C2 | < 50
O=C1C[C@@H]2C=C(CO)C[C@@]34[C@@H]1CCCN3CCC[C@H]24 | < 50
O=c1ccc2c([nH]1)C[C@@H]1C[C@@H](CO)C[C@]23NCCC[C@H]13 | < 50
CC(=O)NC1=C2CCC[N+]3([O-])CCC[C@]4(O)[C@H](C1)C[C@@H](C)C[C@]243 (stereo partly specified) | < 50
